Results on two molecules are retold here after patent US6562859B1, “Ureido derivatives of poly-4-amino-2-carboxy-1-methyl pyrrole compounds for inhibition of inflammation” (The United States of America as represented by the …, priority 1997, dated 2003).

The target in experiment [1] is T1, CXCR4 chemokine receptor (Homo sapiens, UniProt P61073).
T1 construct: Human monocytes, which express the CXCR4 chemokine receptor; endogenous in cells; host or cells: human monocytes
The experiment is described as follows: Competition with 44716.111 mAb binding to CXCR4 on human monocytes (FACS). Conditions: human monocytes pre-incubated 15 min at 4° C. with 125 nM SDF-1α or 200 μM NSC 651016. As to the method:
Competition assays were performed with the 44716.111 mouse monoclonal antibody (mAb), which binds to the extracellular domain of the CXCR4 chemokine receptor. Human monocytes, which express the CXCR4 chemokine receptor, were pre-incubated with either 125 nM of SDF-1α or 200 μM NSC 651016 for 15 min at 4° C. Control monocyte cells were placed at 4° C. for 15 min. The cells were then incubated with the 44716.111 mAb for an additional 30 min. The presence of the 44716.111 mAb was detected by incubating the cells with FITC-conjugated anti-murine antibody and subjecting the cells to FACS Analysis.

In experiment [2] the test system is Murine spleen cells. Kind of experiment: Chemotaxis of non-adherent murine spleen cells in vitro. It is filed as cell-based. To be noted: 10 ng/ml RANTES alone; media alone = 1. As to the method:
Murine spleen cells were “panned” on plastic to remove the adherent cells. The recovered cells were incubated for 30 minutes at 37° C. with one of the following: NSC 651015, NSC 651016, NSC 662162, and NSC 680651. […] In assays similarly performed using either the MIP-1α or the SDF-1α chemokine rather than RANTES, chemotactic inhibition was also observed in the presence of formula I compounds.

T1 sequence (P61073 whole entry): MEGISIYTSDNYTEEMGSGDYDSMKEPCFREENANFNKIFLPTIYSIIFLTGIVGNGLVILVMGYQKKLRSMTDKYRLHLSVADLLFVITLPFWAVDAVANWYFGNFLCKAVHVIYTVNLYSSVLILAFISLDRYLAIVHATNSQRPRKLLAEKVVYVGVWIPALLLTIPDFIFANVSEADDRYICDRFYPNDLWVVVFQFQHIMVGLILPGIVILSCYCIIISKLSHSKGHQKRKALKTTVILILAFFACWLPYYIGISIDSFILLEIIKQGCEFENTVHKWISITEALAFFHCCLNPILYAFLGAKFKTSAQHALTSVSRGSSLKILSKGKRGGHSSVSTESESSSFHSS

Consider SDF-1α, for which the “44716.111 antibody binding to the CXCR4 receptor” value in experiment [1] was “decrease in 44716.111 antibody binding”.

B1: RANTES: β-chemokine used as chemoattractant stimulus (protein, UniProt P13501 24-91, looked up)
C-C motif chemokine 5: SPYSSDTTPCCFAYIARPLPRAHIKEYFYTSGKCSNPAVVFVTRKNRQVCANPEKKWVREYINSLEMS
On to B1, for which the chemotactic index in experiment [2] was 2.3.
